For assay [1], the target named is Induced myeloid leukemia cell differentiation protein Mcl-1 (Homo sapiens, UniProt Q07820). It is filed as functional.
Another assay concerns the target Large T antigen (Simian virus 40, UniProt P03070). It counts as functional, Betapolyomavirus macacae.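 Also: Confirmatory-stage PubChem screen for compounds that inhibit SV40 T antigen.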
Assay [2] in a line: blockers of CRF-binding protein–CRF-R2 complex – cell-based, uHTS hits, 384-well, dose response (AID 651639). It is filed as functional, Homo sapiens. To be noted: read-out: IC50_Mean.
For assay [3], the target named is T1, Corticotropin-releasing factor receptor 2/Corticotropin-releasing factor-binding protein (Homo sapiens, UniProt P24387+Q13324).
T1 sequence (Q13324 whole entry): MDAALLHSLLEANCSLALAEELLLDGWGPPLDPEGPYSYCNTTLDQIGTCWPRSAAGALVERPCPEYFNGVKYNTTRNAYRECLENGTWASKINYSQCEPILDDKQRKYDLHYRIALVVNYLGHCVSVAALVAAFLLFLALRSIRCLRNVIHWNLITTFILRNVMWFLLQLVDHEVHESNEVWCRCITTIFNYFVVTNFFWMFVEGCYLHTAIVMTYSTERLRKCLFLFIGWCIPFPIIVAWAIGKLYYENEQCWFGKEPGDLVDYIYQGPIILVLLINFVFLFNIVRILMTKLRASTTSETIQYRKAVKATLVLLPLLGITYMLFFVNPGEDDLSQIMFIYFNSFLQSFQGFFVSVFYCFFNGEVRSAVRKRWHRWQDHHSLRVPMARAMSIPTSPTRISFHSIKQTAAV
T1 sequence (P24387 whole entry): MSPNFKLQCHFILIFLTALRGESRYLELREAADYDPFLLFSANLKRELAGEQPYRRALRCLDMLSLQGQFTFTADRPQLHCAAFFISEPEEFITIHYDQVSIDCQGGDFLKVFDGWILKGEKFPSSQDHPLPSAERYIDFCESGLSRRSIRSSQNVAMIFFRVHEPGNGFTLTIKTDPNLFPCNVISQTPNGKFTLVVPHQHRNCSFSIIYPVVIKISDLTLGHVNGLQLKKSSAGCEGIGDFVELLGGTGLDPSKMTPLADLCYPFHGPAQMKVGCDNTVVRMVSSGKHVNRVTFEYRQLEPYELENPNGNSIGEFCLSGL
Description: Dose Response confirmation of uHTS hits for small molecule antagonists of the CRF-binding protein and CRF-R2 receptor complex. To be noted: read-out: IC50_Mean. It is filed as functional.

Assay [4] concerns the target T1, Corticotropin-releasing factor receptor 2/Corticotropin-releasing factor-binding protein. Briefly: activators of CRF receptor 2 with binding protein – uHTS hits, confirmation (AID 602473). It counts as functional. To be noted: read-out: EC50_Mean.
The target in assay [5] is T2, Fatty acid synthase (Homo sapiens, UniProt P49327). Briefly: inhibition of human FAS-TE enzyme activity – biochemical, endpoint fluorescence intensity, uHTS hits, dose response (AID 624327).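 Also: fluorescence from hydrolysis of an O-methyl fluorescein acyl ester substrate by the enzyme.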 It is filed as functional.
T2 sequence (P49327 whole entry): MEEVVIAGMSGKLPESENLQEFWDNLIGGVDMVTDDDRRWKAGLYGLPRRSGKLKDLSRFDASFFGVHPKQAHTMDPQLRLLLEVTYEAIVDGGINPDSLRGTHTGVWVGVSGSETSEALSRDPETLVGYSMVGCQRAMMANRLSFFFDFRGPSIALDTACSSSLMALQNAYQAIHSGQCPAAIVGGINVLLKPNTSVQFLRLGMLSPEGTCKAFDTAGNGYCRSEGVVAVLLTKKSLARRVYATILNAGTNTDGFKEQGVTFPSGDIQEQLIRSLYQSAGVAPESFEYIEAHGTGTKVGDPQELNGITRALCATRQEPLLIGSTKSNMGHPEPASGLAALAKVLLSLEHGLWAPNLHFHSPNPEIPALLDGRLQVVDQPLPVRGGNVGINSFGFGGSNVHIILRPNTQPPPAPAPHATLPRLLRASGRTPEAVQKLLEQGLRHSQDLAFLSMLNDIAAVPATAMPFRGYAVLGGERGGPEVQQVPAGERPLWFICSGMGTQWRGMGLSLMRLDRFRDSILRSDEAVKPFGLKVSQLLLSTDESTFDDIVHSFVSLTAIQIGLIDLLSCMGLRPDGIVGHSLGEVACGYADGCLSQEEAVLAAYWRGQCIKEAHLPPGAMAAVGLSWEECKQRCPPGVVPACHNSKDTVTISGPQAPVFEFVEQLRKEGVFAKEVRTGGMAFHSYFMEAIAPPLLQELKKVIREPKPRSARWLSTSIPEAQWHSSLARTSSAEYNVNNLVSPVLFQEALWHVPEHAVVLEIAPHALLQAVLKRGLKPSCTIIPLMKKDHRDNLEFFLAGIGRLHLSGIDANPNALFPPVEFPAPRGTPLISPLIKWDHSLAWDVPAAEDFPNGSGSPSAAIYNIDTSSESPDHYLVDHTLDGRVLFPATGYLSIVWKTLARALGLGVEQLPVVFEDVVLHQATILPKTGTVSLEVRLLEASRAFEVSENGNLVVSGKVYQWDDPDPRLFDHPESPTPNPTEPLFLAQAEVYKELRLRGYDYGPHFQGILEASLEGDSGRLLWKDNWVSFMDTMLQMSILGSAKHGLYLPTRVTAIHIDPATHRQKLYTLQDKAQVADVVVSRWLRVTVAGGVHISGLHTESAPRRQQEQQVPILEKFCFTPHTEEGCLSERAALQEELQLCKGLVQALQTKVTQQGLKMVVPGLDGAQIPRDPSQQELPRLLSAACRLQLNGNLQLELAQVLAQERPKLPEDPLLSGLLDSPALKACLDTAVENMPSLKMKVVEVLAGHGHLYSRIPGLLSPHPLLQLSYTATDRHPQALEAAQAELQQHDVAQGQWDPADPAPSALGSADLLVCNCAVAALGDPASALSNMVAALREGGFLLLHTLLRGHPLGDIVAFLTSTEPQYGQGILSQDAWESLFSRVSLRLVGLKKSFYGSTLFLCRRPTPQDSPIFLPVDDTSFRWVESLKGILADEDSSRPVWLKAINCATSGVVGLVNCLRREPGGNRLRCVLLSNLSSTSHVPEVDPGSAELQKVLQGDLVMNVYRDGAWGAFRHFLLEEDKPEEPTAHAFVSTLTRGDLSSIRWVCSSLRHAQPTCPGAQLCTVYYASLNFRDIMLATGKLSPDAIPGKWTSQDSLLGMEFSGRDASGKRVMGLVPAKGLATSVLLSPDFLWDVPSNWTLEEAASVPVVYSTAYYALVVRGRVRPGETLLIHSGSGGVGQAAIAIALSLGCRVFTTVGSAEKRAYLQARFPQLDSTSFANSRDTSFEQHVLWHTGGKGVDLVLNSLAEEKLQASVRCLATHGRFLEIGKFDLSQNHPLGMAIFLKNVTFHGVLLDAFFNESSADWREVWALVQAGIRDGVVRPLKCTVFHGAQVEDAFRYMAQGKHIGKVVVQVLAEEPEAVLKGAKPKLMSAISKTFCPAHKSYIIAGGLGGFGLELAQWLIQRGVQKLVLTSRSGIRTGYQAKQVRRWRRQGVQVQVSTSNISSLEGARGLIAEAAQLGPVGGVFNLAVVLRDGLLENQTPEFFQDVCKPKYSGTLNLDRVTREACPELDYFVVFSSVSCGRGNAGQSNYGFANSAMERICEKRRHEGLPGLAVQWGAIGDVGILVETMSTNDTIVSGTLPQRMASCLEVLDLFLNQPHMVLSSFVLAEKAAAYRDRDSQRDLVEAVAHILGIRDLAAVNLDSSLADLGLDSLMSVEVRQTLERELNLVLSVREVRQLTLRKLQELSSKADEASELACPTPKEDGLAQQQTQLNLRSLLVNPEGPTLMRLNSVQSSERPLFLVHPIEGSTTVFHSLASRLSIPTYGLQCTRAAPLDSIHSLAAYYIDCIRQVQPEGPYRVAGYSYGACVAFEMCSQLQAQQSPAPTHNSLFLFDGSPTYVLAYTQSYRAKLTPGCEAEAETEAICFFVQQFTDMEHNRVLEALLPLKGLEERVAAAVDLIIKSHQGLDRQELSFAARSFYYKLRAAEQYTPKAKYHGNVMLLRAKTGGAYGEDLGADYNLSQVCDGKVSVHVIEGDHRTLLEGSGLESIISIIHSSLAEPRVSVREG
Assay [6] has as its target T2, Fatty acid synthase. Briefly: inhibition of human FAS-TE enzyme activity – biochemical, kinetic fluorescence intensity, dose response (AID 624326).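 Also: rate of fluorescence rise from hydrolysis of a fluorogenic O-methyl fluorescein ester substrate.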 It is filed as functional.
The subject of the next assay is H9c2. Briefly: cells. To be noted: Rattus norvegicus, H9c2, Myocardium. It is filed as functional, cell-based.
Assay [7] deals with T3, DNA repair protein RAD52 homolog (Homo sapiens, UniProt P43351).
T3 sequence (P43351 whole entry): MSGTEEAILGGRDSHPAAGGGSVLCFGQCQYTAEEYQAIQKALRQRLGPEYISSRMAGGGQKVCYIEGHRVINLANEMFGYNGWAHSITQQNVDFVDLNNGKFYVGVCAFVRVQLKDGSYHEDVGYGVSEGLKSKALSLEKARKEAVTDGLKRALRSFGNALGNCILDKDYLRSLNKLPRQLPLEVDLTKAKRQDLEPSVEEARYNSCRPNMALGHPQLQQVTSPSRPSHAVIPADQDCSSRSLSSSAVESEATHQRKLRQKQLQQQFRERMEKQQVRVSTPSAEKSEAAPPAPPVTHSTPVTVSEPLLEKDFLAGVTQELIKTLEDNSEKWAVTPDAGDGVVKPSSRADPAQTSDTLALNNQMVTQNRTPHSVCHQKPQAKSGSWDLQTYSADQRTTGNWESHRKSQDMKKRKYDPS
It is filed as functional, biochemical.

In another assay the target is Paired box protein Pax-8 (Homo sapiens, UniProt Q06710). Briefly: PAX8 transcriptional activity inhibition in RMG-I – RMG-I cells, luciferase, cherry-pick, dose response (AID 687027).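 Also: luciferase reporter driven by Pax8 target thyroperoxidase promoter measured by SteadyGlo luminescence.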 It counts as functional, cell-based.
Chain of Paired box protein Pax-8 (Q06710 whole entry): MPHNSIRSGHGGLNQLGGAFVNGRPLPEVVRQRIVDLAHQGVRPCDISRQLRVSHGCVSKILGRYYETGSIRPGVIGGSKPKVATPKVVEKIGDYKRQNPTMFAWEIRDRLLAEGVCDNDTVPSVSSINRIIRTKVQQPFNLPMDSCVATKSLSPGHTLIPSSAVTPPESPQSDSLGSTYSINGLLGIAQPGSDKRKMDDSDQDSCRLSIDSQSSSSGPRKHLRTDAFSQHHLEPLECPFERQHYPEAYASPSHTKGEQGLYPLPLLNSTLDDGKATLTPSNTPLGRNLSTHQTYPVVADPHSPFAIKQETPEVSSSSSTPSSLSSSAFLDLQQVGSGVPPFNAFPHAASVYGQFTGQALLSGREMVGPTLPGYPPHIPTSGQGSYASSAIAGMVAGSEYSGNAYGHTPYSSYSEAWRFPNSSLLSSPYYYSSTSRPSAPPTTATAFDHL
A short description of assay [8]: HEK-293T viability loss after treatment – luminescence, T-cell screen hits, cytotoxicity control for TCR NF-kB inhibitor project, dose response (AID 489026).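 Also: cells exposed to compound about 14 hours before the viability readout.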 It is filed as functional, cell-based.
The next assay has as its target T4, Protein RecA (Mycobacterium tuberculosis, UniProt P9WHJ3).
T4 sequence (P9WHJ3 whole entry): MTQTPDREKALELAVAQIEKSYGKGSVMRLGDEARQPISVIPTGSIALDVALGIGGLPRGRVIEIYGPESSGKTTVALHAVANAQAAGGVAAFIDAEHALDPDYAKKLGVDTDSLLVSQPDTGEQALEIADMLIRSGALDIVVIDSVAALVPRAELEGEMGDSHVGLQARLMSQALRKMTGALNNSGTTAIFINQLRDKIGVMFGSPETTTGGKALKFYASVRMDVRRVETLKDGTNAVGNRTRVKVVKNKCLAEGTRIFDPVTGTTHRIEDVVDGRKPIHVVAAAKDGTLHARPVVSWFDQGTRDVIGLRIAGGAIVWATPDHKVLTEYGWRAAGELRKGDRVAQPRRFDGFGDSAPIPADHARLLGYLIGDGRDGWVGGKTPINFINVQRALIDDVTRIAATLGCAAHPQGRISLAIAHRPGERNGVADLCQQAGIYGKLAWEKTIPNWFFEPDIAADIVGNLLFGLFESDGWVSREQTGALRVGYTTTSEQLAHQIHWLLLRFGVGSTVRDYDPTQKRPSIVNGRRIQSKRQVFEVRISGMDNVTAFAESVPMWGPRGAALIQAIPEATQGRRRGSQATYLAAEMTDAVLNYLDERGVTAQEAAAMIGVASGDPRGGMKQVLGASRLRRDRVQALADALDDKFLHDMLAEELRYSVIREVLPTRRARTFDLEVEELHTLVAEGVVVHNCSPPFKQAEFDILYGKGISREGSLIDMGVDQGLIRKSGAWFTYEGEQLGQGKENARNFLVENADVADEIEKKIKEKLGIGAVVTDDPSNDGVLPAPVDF
Description: Fluorescence Cell-Free Homogeneous Dose Retest to Identify Inhibitors of RecA-Intein Splicing Activity. [Related pubchem assays (depositor defined):AID2097, AID2223, AID489010, AID492950]. It counts as functional.

Assay [9] has as its target T5, Replicative DNA helicase DnaB (Mycobacterium tuberculosis, UniProt P9WMR3).
T5 sequence (P9WMR3 whole entry): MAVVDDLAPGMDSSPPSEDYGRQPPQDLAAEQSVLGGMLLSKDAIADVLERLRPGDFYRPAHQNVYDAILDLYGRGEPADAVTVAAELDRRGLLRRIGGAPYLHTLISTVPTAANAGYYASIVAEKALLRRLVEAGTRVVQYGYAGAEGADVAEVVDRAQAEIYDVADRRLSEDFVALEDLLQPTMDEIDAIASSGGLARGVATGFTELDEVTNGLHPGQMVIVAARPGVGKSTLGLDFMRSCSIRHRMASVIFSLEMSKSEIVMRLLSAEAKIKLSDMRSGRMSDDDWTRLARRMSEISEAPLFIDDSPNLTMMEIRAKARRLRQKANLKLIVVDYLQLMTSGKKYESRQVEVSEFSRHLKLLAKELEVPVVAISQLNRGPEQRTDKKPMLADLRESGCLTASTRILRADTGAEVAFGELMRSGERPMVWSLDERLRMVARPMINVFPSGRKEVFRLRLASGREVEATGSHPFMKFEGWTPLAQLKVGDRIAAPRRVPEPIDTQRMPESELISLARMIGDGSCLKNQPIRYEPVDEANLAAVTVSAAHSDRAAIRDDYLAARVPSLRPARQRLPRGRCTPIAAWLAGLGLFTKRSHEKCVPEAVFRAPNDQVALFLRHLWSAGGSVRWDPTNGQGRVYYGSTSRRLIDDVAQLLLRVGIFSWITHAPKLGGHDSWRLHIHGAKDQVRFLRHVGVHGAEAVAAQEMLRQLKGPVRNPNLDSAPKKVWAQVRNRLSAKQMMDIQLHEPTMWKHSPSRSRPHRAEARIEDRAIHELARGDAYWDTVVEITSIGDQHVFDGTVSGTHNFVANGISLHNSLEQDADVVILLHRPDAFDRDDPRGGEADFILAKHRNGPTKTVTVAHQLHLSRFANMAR
Briefly: DnaB intein splicing inhibitors, dose response, biochemical, cell-free fluorescence (AID 449749). It is filed as functional.

The target in assay [10] is T6, Sentrin-specific protease 8 (Homo sapiens, UniProt Q96LD8).
T6 sequence (Q96LD8 whole entry): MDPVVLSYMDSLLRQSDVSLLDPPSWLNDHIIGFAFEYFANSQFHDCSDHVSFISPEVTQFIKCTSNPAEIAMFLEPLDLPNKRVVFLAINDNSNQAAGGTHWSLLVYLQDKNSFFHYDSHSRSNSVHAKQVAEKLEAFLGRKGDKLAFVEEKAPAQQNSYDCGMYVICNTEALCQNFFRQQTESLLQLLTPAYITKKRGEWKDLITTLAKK
It counts as functional.

Assay [11] addresses T6, Sentrin-specific protease 8. It is filed as functional. The source holds these as a separate data set.
A short description of assay [12]: microbe, parasite or virus in culture. It counts as functional. To be noted: Mycobacterium tuberculosis.
A short description of a further assay: cells. It is filed as functional, cell-based.

Active and inactive are the calls of the source.

Chain of Large T antigen (P03070 whole entry): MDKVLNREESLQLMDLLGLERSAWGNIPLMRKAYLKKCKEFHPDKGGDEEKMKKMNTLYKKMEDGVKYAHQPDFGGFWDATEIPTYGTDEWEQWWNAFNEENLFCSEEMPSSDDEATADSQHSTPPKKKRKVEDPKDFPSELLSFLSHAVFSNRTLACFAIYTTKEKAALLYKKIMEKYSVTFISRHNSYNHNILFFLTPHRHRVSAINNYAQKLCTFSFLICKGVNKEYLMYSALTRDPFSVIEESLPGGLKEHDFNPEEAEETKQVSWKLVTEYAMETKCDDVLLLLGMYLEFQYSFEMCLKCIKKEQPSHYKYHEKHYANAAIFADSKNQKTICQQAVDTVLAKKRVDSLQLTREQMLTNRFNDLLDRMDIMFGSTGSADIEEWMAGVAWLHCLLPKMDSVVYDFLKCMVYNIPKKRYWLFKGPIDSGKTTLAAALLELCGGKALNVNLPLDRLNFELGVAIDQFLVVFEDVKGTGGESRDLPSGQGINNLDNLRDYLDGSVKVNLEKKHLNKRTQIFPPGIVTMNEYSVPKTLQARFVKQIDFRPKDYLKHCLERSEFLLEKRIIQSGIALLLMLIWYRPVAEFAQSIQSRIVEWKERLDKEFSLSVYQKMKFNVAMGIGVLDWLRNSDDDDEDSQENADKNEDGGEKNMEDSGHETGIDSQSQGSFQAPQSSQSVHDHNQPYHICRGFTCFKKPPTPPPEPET
Chain of Induced myeloid leukemia cell differentiation protein Mcl-1 (Q07820 whole entry): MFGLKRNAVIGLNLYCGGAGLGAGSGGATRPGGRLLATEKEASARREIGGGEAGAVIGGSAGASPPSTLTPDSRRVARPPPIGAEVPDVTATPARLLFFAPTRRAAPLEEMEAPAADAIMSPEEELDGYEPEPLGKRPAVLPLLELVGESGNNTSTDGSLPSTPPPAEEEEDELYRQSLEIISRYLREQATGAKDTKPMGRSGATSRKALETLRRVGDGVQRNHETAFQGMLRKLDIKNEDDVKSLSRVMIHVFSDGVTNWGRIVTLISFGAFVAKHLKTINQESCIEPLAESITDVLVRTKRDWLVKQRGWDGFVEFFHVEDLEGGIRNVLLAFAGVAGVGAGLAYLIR

For the molecule `CCOc1cc(/C=N/Nc2nc(-c3cccs3)c(NC(C)=O)s2)ccc1O`, the values for the IC50 (in assay [1]; on Large T antigen) were 3.51 µM (active) and 30.5 µM (active), respectively.
Regarding `Cc1nc(C)c(-c2csc(Nc3ccc(N)cc3)n2)s1`, at Large T antigen, the IC50 is 11.5 µM (active).
As for `O=C(NC(=O)c1ccccc1O)c1ccc(C(F)(F)F)cc1`, the IC50 in [2] is 15 µM (active); in [3] it was 4.31 µM (active). The EC50 in assay [4] is 9.51 µM (active).
Regarding `Cc1csc(N(C(=O)CCNC(=O)c2ccc([N+](=O)[O-])cc2)c2ccccc2)n1`, the IC50 is 5.73 µM (active) on Fatty acid synthase [5] and 4.74 µM (active) at Fatty acid synthase [6].
For `Cc1cc([N+](=O)[O-])nn1CC(=O)N/N=C/c1ccccc1Br`, the figures for the IC50 on Fatty acid synthase [5] and on Fatty acid synthase [6] were 10.3 µM (active) and 7.28 µM (active), respectively.
Turning to `CC(=O)N1CCN(c2ccccc2NC(=O)c2ccc(-c3cccc([N+](=O)[O-])c3)o2)CC1`, the figures for the IC50 on Fatty acid synthase [5], with H9c2 and at Fatty acid synthase [6] were 8.81 µM (active), > 79 µM (inactive) and 12.1 µM (active), respectively.
As for `OC(CN1CCNCC1)Cn1c2ccccc2c2ccccc21` (stereo not drawn), in [7], the AC50 (usually the midpoint of the concentration-response curve, whichever way the signal moves) is 20.7 µM (active).
As for `COc1ccc(OC)c(-c2nnc3n2N=C(c2ccc(OC)c(OC4CCCC4)c2)CS3)c1`, the AC50 at Paired box protein Pax-8 is 3.49 µM (active). Besides, in [8], the IC50 is 28.3 µM (inactive).
With `CCOc1cc(CNc2ccc(N3CCN(C(C)=O)CC3)cc2)cc(Br)c1OC`, the IC50 on Large T antigen is 8.75 µM (active).
With `CCOC(=O)c1ccc(/N=c2\sc(C(=O)OC)cc(=O)n2CCCN2CCOCC2)cc1`, the IC50 is 4.53 µM (active) in assay [2] and 4.49 µM (active) in assay [3]. Also, in assay [4], the EC50 is > 53 µM (inactive).
Turning to `CN/C(=C/[N+](=O)[O-])NCCSCc1ccc(CN(C)C)o1`, in assay [7], the AC50 is 18 µM (active).
For `COc1cccc(N/C([S-])=C(/C(=O)c2ccc(OC(F)F)cc2)[n+]2ccccc2)c1`, the EC50 on Protein RecA is 8.62 µM (active). Besides, the AC50 in assay [9] is 23.9 µM (active). Besides, the results for the IC50 in assay [10] and in [11] were 3.93 µM (active) and 6 µM (active), respectively.
With `O=C1NC(=S)N(C2CC2)C(=O)/C1=C/NNc1ccccc1`, the IC50 at Large T antigen was 8.87 µM (active).
For the molecule `Cn1c(N)c(C(=O)COC(=O)CNS(=O)(=O)c2ccc(Cl)c(Cl)c2)c(=O)n(C)c1=O`, the IC50 was 9.63 µM (active) in assay [2] and 30.8 µM (active) in assay [3]. Besides, the EC50 in [4] was > 53 µM (inactive).
`CC(C)(C)c1ccc(C(=O)NCC(=O)OCc2ccc([N+](=O)[O-])cc2)cc1`: the IC50 on Fatty acid synthase [5] was 2.66 µM (active); at Fatty acid synthase [6], 1.69 µM (active).
Turning to `CN(C)CCNC(=O)c1cccc(-c2cnc3c(NC=O)cc(/C=C/c4ccccc4)cn23)c1`, the AC50 in assay [7] is 2.21 µM (active).
In the case of `Cc1cc(OC(=O)c2cccs2)c2c3c(c(=O)oc2c1)CCCC3`, the values for the IC50 in assay [2] and in [3] were > 20 µM (inactive) and 16.4 µM (active), respectively. Moreover, the CC50 in assay [12] is > 40 µM (active). Moreover, the EC50 in assay [4] is > 53 µM (inactive).
For `CC(NC(=O)C12CC3CC(CC(O)(C3)C1)C2)c1ccc(Cl)cc1Cl` (stereo not drawn), the EC50 in “cells” is given as > 350 µM (not active).
Take `COc1cccc(CNC(=O)COC(=O)c2cc([N+](=O)[O-])ccc2N2CCCC2)c1`: the IC50 on Fatty acid synthase [5] was 3.18 µM (active); at Fatty acid synthase [6], 1.23 µM (active).
`Cc1ccc(S(=O)(=O)c2nnn3c2nc(N2CCOCC2)c2ccccc23)cc1C`: the IC50 was 7.26 µM (active) in assay [2] and 5.78 µM (active) in assay [3]. In addition, in assay [4], the EC50 was > 53 µM (inactive).
As for `CC(C(=O)c1ccc(-c2ccccc2)cc1)[n+]1cccc(NC(=O)c2ccccc2)c1` (stereo not drawn), the AC50 in [7] was 19.1 µM (active).

Source of the values: ChEMBL document CHEMBL1201862, “PubChem BioAssay data set” (2004).
